The subject of this experiment is blood glucose levels. Briefly: Glucose challenge test in rats. In kind it is in vivo. To be noted: compared to control; p.o. 30 min before i.p. glucose challenge; non-fasted male Wistar rats. The protocol: A common way of testing for an effect of extracts or new chemical entities on blood glucose levels is the glucose challenge test (Verspohl, E. J.: Recommended testing in diabetes research. Planta Med 68 (7): 581-90, 2002) in which rats are given the extract, control, or a known antidiabetic substance with challenge an intraperitoneal (i.p.) dose of glucose. The extracts or extract PLUS creatine are given orally 30 min. before the glucose challenge. Blood samples are taken sublingual at time points 0, 15, 30, 60, and 120 minutes for the glucose challenge. This sampling scheme ensures to monitor both effects of extracts on the blood glucose levels after glucose challenge closely enough.
Male non-fasted Wistar rats weighing 250-300 g were purchased from Harlan (Indianapolis, Ind., U.S.A). […]
Blood was drawn at the appropriate time points from the sublingual vein after a short halothane anesthesia and stored at 4° C. with addition of heparin. […] The supernatant plasma was taken and analyzed using an autoanalyzer (Merck, Darmstadt). […]
Both percent and AUC data were analyzed by one-way ANOVA and Student-Newman-Keuls Multiple Comparison Test using Graphpad 4.0 Software, San Diego, USA. The AUC (area under the curve) was calculated using the trapezoidal rule without extensions beyond the last time point measured.

Molecules are shown by their SMILES.

On to `CN(CC(=O)O)C(=N)N.O` [creatine monohydrate], for which the glucose disposal result is “no effect”.

Source of the values: US20110123654A1, “SYNERGISTIC ENHANCEMENT OF CELLULAR ERGOGENIC NUTRIENT UPTAKE, LIKE CREATINE OR CARNITINE, WITH TARRAGON” (priority 2008, published 2011).
